From US8299102B2, “Heteroarylcyclopropanecarboxamides and their use as pharmaceuticals” (Sanofi, priority 2006, dated 2012) come the findings set out here.

Structures can show the parent of a compound that is named as a salt. Some results are limits rather than exact numbers.

The test system of this assay is eNOS promoter. In words: Activation of eNOS transcription (eNOS promoter firefly luciferase reporter gene assay). Format: cell-based. The note with it: human endothelial cell line stably transfected with eNOS promoter-luciferase construct; 18 h incubation; determined graphically; read-out: EC50 values of transcription induction ratios (TIR). As for the experimental part:
Activation of eNOS transcription was measured as described in detail by Li et al., “Activation of protein kinase C alpha and/or epsilon enhances transcription of the human endothelial nitric oxide synthase gene”, Mol. Pharmacol. 53 (1998) 630. Briefly, a 3.5 kB long fragment 5′ of the starting codon of the eNOS gene was cloned, sequenced and cloned in firefly luciferase expression plasmids to monitor activation of the eNOS promoter by reporter gene activity. A human endothelial cell line stable transfected and expressing this promoter-reporter construct was used for compound testing. Cells were incubated for 18 h with the compounds.
All compounds were dissolved in sterile dimethyl sulfoxide (DMSO). A final concentration of 0.5% DMSO in complete medium was allowed. Induction of reporter gene expression in these cells was measured using a standard luciferase assay system (Promega, Cat. No. E150) according to the manufacturer's instructions. Luciferase induction in cells incubated with compounds were compared to those incubated with solvent alone. The ratio of both activities (transcription induction ratio, TIR) was plotted as a function of compound concentration. […] EC50 values of transcription induction ratios as a function of compound concentration were determined graphically.
(Reporter assays use an easily measured gene product as a stand-in for the process of interest.)

In the case of `O=C([C@@H]1C[C@H]1c1ccc(-c2ccc(F)cc2)nc1)N1CCCC1` (relative stereo) [Example 46, {trans-2-[6-(4-fluoro-phenyl)-pyridin-3-yl]-cyclopropyl}-(pyrrolidin-1-yl)-methanone trifluoroacetic acid salt], the EC50 lay in the range of 500 to 5000 nM.

As to `CN(C)C(=O)[C@@H]1C[C@H]1c1ccc(-c2ccccc2F)nc1` (relative stereo) [Example 49, trans-2-[6-(2-Fluoro-phenyl)-pyridin-3-yl]-cyclopropanecarboxylic acid dimethylamide trifluoroacetic acid salt], the EC50 is less than 500 nM.
